Data published in patent US20260209201A1, “TRISULFIDE COMPOUND AND CLATHRATE THEREOF” (Kyowa Pharma Chemical Co., Ltd., priority 2022, published 2026).

Assay: Thermal stability test (Test Example 1): heating at 100° C. for 5 hours, residual rate by HPLC
Type: physicochemical
Conditions: heated at 100° C.; for residual rate: amount before heating set at 100%
Experimental: The thermal stability of (R)-α-lipoic acid, (R)-lipoic acid trisulfide, and compound (12-1) was evaluated as follows. Each compound was placed in a round-bottom flask and heated at 100° C. for 5 hours. Every hour, a sample was taken from the flask, dissolved in a methylene chloride/methanol mixture (1:1), and subjected to HPLC. The residual rate over time was calculated from the area values of each component.
In FIG. 1, the residual rate on the vertical axis was calculated from the degree of decomposition over time for each sample, with the amount before heating set at 100%. […] In addition, (R)-α-lipoic acid and (R)-lipoic acid trisulfide melted immediately after the start of heating, and insoluble by-products were formed. […] This is presumed to be due to the high melting point of compound (12-1) and suppression of intermolecular polymerization. From the above, it was confirmed that the compound or salt represented by Formula (1) has higher thermal stability than (R)-α-lipoic acid and (R)-lipoic acid trisulfide.

residual rate (after 5 hours) | decomposition (at 2 hours) | residual rate (at 1 hour) | SMILES
about 70% | no decomposition | – | O=C(O)CCCC[C@@H]1CCSSS1 [(R)-lipoic acid trisulfide]
≥ 95% | – | – | O=C(CCCC[C@@H]1CCSSS1)N1CCN(C(=O)CCCC[C@@H]2CCSSS2)CC1 [Compound (12-1)]
about 50% | – | below 60% | O=C(O)CCCC[C@@H]1CCSS1 [(R)-α-lipoic acid]
